Laboratory results published in patent publication US20090068143A1, “ORALLY EFFECTIVE C[…]” (priority 2005, published 2009).
In brackets after ≈: the same amount, converted by molar mass. Like-named read-outs stand apart in the source and are kept apart here.

Assays:
[1] = Actual solubility in aqueous buffers / cosolvent (HPLC, spectrophotometer); type: physicochemical; settings: for solubility: thermodynamic from solid
Procedure: The actual solubility of certain compounds of the invention was assessed in aqueous buffers and final concentration of compounds was determined using HPLC and spectrophotometer methodologies. […] Therefore, compounds that were designed following the same rational yielded unexpectedly divergent outcome, for instance in connection with solubility in aqueous solutions.
It should be noted that following lyophilization compound 18F could be dissolved in 80 mM phosphate buffer at pH 6.9 even more efficiently at concentrations up to 60 mg/ml, about two order of magnitudes higher than expected.
Approximately 11 g of compound 18F were lyophilized in one lyophilization cycle. A cosolvent mixture comprising 38.6% w/v of compound 18F was divided into several dishes to fit the lyophilization chamber. As a result of lyophilization, a dry product with improved physical properties such as flowability and less stickiness was obtained.

visceral pain = assay: Visceral pain, acetic acid induced writhing responses; type: in vivo, ICR mice; settings: for number of writhing responses: alone or combined with 0.5 mg/kg CPZ; for reduction of writhing responses as compared to vehicle treated animals: second study
Procedure: For the i.v. part of the study, compounds were dissolved in CREMOPHOR®:Ethanol and diluted 1:20 in saline prior to injection, fifteen minutes before pain induction. When compounds were delivered per os, they were dissolved in phosphate buffer or in CREMOPHOR®:Ethanol as previously described and administered 1 hour before pain induction. Each treatment group, except for controls comprising at least 30 animals, was composed of at least 6 animals. Fifteen or sixty minutes later, depending on the route selected for drug administration, the mice were injected i.p. with 10 ml/kg of 0.6% acetic acid and the number of visceral pain related behaviors (writhing, stretching, contractions of the abdomen accompanied by an elongation of the body and extension of the hind limbs) is counted over a period of 5 minutes, starting 5 minutes after the acetic acid administration. These visceral pain related behaviors are globally defined as writhing responses (WR). The results are expressed as mean number of writhing responses±SEM. Data were analyzed using analysis of variance (ANOVA) followed by post-hoc Fisher test. A value of p<0.05 was considered to be statistically significant and is indicated on the figure by an asterisk over the relevant treatment group.
The following results were obtained at 2 mg/kg i.v. of test compounds or, in the case of the study performed with cannabinoid receptor antagonists, 1 mg/kg test compound or antagonist alone and 1 mg/kg test compound+1 mg/kg antagonist. In a separate study, it was shown that analgesic activity of compounds of the invention was dose related.

iNOS = iNOS gene expression in LPS activated RAW 264.7 macrophages (real-time RT-PCR); type: cell-based, mouse
Procedure: RAW 264.7 macrophages, a mouse cell line (ATCC # TIB 71), were grown in Dulbecco's modified Eagle's medium (DMEM) with 4 mM L-glutamine adjusted to contain 1.5 g/L sodium bicarbonate, 4.5 g/L glucose, and 10% heat inactivated fetal bovine serum. Cells were grown in tissue culture flasks and seeded at appropriate density into 6 wells tissue culture plates. Four million Raw cells in half a milliliter were stimulated with 1 μg/ml Lipopolysaccharide E. coli 055:B5 (DIFCO Laboratories). The mouse macrophages were pre-treated for one hour with controls or 10 μM of test compounds, and later on activated with LPS. RNA samples were extracted from the cells 3 hrs after activation and iNOS gene expression levels were analyzed by real-time RT-PCR as previously described. For western blot analysis, compounds were tested at 1, 5 and 10 μM and cells were harvested 24 hrs after LPS stimulation. Supernatant were collected and NO secretion was analyzed using ELISA. Cells were washed 3 times with cold PBS, scrapped and lyzed in 100 μl cell lysis buffer containing 20 mM HEPES, pH 7.6, 150 mM NaCl, 1.5 mM MgCl2, 0.2 mM EDTA, 1% Triton X-100, 10% glycerol, 1 mM DTT, 1 mM PMSF, 10 μg/ml aprotinin. 5 µg/ml leupeptin, 10 mM p-nitrophenyl phosphate, 100 mM β-glycerophosphate, 1 mM sodium fluoride, and 0.1 μM sodium orthovanadate. Cells were lyzed on ice for 10 minutes before further processing.
The results of this experiment are expressed as fold activation of iNOS over non-activated macrophages, after normalization to cyclophilin A expression. Compound 18A inhibits 63% of iNOS gene expression, and compounds 18B, 18E and 18F inhibit 55%, 25% and 100% respectively. […] This surprising observation strengthen the fact that compounds of the invention, though chemically related, have distinct and unexpected properties.

[2] = test system: Taxol® induced neuropathic pain; assay: Taxol® induced neuropathic pain; type: in vivo, Sprague Dawley rats
Procedure: Male Sprague Dawley rats (average body weight 150-200 g, Harlan, Israel) were administered i.p. with 6 mg/kg Taxol® (Bristol Myers Squibb, USA) every other day for 9 days. On day 13, baseline pain threshold was measured. One hour later, the animals were administered with 5 ml/kg i.p. of vehicle (PB) only and pain threshold was re-established. After an additional hour animals were treated with various doses of compound 18F ranging from 0.5 mg/kg up to 10 mg/kg administered i.p. Morphine at 5 mg/kg i.p. and gabapentin at 100 mg/kg i.p served as positive controls. Each treatment group comprised at least eight animals. One hour post drug administration pain threshold was monitored using thermal and mechanical stimuli as previously described. At the end of the study, rats were euthanized with sodium pentobarbitone 100 mg/kg i.p. Sample rats were then transfused with saline and heparinized 4% formaldehyde solution. The L4-L5 area of the spinal cord and the sciatic nerve were taken for histopathology assessment.
The time latencies for thermal hyperalgesia, and force needed to induce pain of the different treatment groups are compared, using one way ANOVA (analysis of variance), followed by Duncan's post hoc test. A p<0.05 value was considered statistically significant and is indicated on the figure by an asterisk over the relevant treatment group.

## CCCCCCC(C)(C)c1cc(O)c([C@H]2CC(=O)C3CC2C3(C)C)c(OC(=O)/C=C/C(=O)O)c1 (single isomer, unassigned; (-)) [Compound 18F, (−)-4-{4-[1,1-Dimethylheptyl]-2-fumarate-6-hydroxy-phenyl}-6,6-dimethyl-bicyclo[3.1.1]heptan-2-one]
[1]; 80 mM phosphate buffer, aqueous buffer, 80 mM phosphate buffer, read-out: solubility of non-lyophilized material
  solubility: ~10 mg/mL (≈ 21.2 mM)
[1]; 80 mM phosphate buffer, pH 6.9, aqueous buffer, lyophilized, 80 mM phosphate buffer, pH 6.9, read-out: solubility following lyophilization
  solubility: ≤ 60 mg/mL
[1]; 80 mM phosphate buffer, pH 7.8, aqueous buffer, 80 mM phosphate buffer, pH 7.8, read-out: actual solubility
  solubility: ≤ 12 mg/mL
[1]; 80 mM phosphate buffer, pH 7.8 vs calculated
  actual solubility higher than expected: about 20 fold
[1]; tert.butanol and water 62.5:32.5 (v/v)
  dissolution in organic cosolvent solution: up to 80 mg/ml
Visceral pain; 0.5 mg/kg compound 18F i.v.
  number of writhing responses: 10
Visceral pain; 0.5 mg/kg i.v.
  reduction of writhing responses as compared to vehicle treated animals: 64%
Visceral pain; 1 mg/kg compound 18F i.v.
  number of writhing responses: 9
Visceral pain; 1 mg/kg i.v.
  inhibition of the number of writhing responses: 71%
Visceral pain; 1 mg/kg i.v. + 1 mg/kg SR141716A
  effect of addition of CB1 antagonist on analgesic activity: only partially reversed
Visceral pain; 1 mg/kg i.v. + 1 mg/kg SR144528
  effect of addition of CB2 antagonist on analgesic activity: significantly reversed
Visceral pain; 2 mg/kg i.v.
  inhibition of writhing responses as compared to vehicle treated group: 94%
  reduction of writhing responses as compared to vehicle treated animals: 98%
Visceral pain; 10 mg/kg p.o. in CREMOPHOR®:Ethanol
  inhibition of writhing responses: 71%
Visceral pain; 10 mg/kg p.o. in phosphate buffer
  inhibition of pain response as compared to untreated animals: 61%
Visceral pain; p.o. in phosphate buffer
  dose from which reduction of writhing responses was significant: 10 mg/kg
Visceral pain; p.o. in phosphate buffer, highest dose tested (5 to 60 mg/kg)
  inhibition of writhing responses: 93%
iNOS; 5 μM of SR-141716 and SR-144528
  effect of CB1 or CB2 antagonists on iNOS inhibiting activity: only blocked by CB2 antagonists
iNOS; 10 μM, 1 h pre-treatment, 3 hrs after LPS activation
  inhibition of iNOS gene expression: 100%
[2]; 10 mg/kg i.p., baseline 15 gm, untreated 5 gm
  effect on pain threshold: increased the pain threshold back to pre-Taxol® baseline
[2]; 1, 5 and 10 mg/kg i.p.
  effect on pain threshold versus vehicle: statistically significant from the vehicle treated animals
